Test results reported in ChEMBL document CHEMBL4118117, “Synthesis, biological evaluation, and molecular docking investigation of benzhydrol- and indole-based dual PPAR-γ/FFAR1 agonists” (Bioorg Med Chem Lett, 2018).
Calls of active or inactive are those of the source. No cut-off for these calls is given here.

Assays:
Mus musculus [1] = assay: Antihyperglycemic activity in established high fat diet-induced obese mouse assessed as reduction in blood glucose level at 10 mg/kg, iv administered once daily for 14 days measured at 1 hr post dose on day 7 and 14 during compound dosing; assay type: functional, organism-based
[2] = biological target: Free fatty acid receptor 1 (Homo sapiens, UniProt O14842); assay: Transactivation of recombinant human FFAR1 expressed in CHOK1 cells co-expressing Galpha15 assessed as increase in calcium flux measured after 20 secs for 100 secs by FLIPR assay; assay type: functional, cell-based
Chain of Free fatty acid receptor 1 (O14842 whole entry, the tested form may be a part): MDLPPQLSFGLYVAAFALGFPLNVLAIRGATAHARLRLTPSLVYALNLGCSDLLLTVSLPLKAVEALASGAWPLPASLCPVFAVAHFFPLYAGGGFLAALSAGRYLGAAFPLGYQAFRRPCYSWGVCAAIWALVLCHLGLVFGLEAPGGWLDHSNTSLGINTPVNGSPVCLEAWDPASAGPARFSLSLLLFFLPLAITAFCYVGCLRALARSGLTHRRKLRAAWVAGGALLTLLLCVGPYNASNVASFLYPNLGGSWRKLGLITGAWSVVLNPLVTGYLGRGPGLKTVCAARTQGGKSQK

[3] = biological target: T1, Peroxisome proliferator-activated receptor gamma (Homo sapiens) (UniProt P37231); assay: Transactivation of recombinant human N-terminal GAL4-DBD fused PPARgamma LBD expressed in reporter cells at 30 uM measured after 24 hrs by luciferase reporter gene assay relative to control; assay type: cell-based
T1 sequence (whole entry): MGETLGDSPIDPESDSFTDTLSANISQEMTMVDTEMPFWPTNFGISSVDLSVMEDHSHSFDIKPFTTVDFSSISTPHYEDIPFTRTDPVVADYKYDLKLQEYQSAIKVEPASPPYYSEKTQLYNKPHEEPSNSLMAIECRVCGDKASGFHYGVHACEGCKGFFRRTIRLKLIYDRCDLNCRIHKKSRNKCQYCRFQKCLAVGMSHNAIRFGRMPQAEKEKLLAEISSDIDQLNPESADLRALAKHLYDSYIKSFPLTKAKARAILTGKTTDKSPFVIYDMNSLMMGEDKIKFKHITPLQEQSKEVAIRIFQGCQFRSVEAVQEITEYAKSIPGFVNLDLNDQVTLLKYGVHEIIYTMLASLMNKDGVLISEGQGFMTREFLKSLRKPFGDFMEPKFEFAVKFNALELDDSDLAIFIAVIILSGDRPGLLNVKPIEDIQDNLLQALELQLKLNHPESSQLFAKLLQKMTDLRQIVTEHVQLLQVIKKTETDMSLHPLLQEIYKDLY

[4] = biological target: T1, Peroxisome proliferator-activated receptor gamma (Homo sapiens); assay: Transactivation of recombinant human N-terminal GAL4-DBD fused PPARgamma LBD expressed in reporter cells at 30 uM measured after 24 hrs by luciferase reporter gene assay relative to rosiglitazone; assay type: cell-based
[5] = biological target: T2, Peroxisome proliferator-activated receptor gamma (Homo sapiens, UniProt P37231); assay: Transactivation of recombinant human N-terminal GAL4-DBD fused PPARgamma LBD expressed in reporter cells measured after 24 hrs by luciferase reporter gene assay; assay type: cell-based
T2 sequence (P37231 whole entry): T1 sequence (whole entry)

Mus musculus [6] = assay: Antihyperlipidemic activity in established high fat diet-induced obese mouse assessed as reduction in plasma triglyceride level at 10 mg/kg, iv administered once daily for 14 days measured at 1 hr post dose on day 7 and 14 during compound dosing by colorimetric method relative to rosiglitazone; assay type: functional
Mus musculus [7] = assay: Antihyperglycemic activity in established high fat diet-induced obese mouse assessed as reduction in body weight at 10 mg/kg, iv administered once daily for 14 days; assay type: functional, organism-based
Mus musculus [8] = assay: Antihyperglycemic activity in established high fat diet-induced obese mouse assessed as reduction in blood glucose level at 10 mg/kg, iv administered once daily for 14 days measured at 1 hr post dose on day 7 and 14 during compound dosing in presence of rosiglitazone; assay type: functional, organism-based
Mus musculus [9] = assay: Antihyperglycemic activity in established high fat diet-induced obese mouse assessed as reduction in blood glucose level at 10 mg/kg, iv administered once daily for 14 days measured at 1 hr post dose on day 7 and 14 during compound dosing relative to rosiglitazone; assay type: functional
Mus musculus [10] = assay: Antihyperglycemic activity in established high fat diet-induced obese mouse assessed as reduction in blood glucose level at 10 mg/kg, iv administered once daily for 14 days measured at 1 hr post dose on day 7 and 14 during compound dosing in presence of glimepride; assay type: functional, organism-based

Q: `O=C1NC(=O)C(Cc2ccc(OCCOC(c3ccccc3)c3ccccc3)cc2)S1` (stereo not drawn) was tested. Which Activity (Mus musculus [1]) did it give?
A: The Activity was “Active”.

Q: What about the EC50 ([2]; read-out: EC50) of the same molecule?
A: The EC50 was 21.3 µM.

Q: What about the fold change (FC) [3] of the same molecule?
A: The fold change (FC) was 4.

Q: And the Activity [4]?
A: Its Activity is 9.3%.

Q: How did the EC50 ([2]; read-out: EC50) turn out when `O=C1NC(=O)C(Cc2ccc(OCCn3cnc4ccccc43)cc2)S1` (stereo not drawn) was run?
A: Its EC50 is 4.31 µM.

Q: What about the fold change (FC) [3] of the same molecule?
A: Its fold change (FC) is 29.7.

Q: What about the EC50 [5] of the same molecule?
A: Its EC50 is 2.32 µM.

Q: And the Activity [4]?
A: Its Activity is 69.8%.

Q: With `COc1ccc(C(OCCOc2ccc(CC3SC(=O)NC3=O)cc2)c2ccccc2)cc1` (stereo not drawn) as the molecule, how does the “fold change (FC)” value (Mus musculus [6]) read?
A: Its value is 5.5.

Q: And the Activity (Mus musculus [1])?
A: The Activity was “Active”.

Q: And the EC50 ([2]; read-out: EC50)?
A: Its EC50 is 17.8 µM.

Q: And the Activity [4]?
A: The Activity was 12.1%.

Q: For `O=C1NC(=O)C(Cc2ccc(OCCn3c(CO)nc4ccccc43)cc2)S1` (stereo not drawn), which EC50 [2] is on record?
A: Its EC50 is “Not Active”.

Q: And the Activity [4]?
A: Its Activity is 39.5%.

Q: Which EC50 ([2]; read-out: EC50) does the source give for `CCCCC/C=C/C/C=C/C/C=C/CCCCC(=O)O` here?
A: Its EC50 is 0.24 µM.

Q: Which Activity (Mus musculus [7]) does the source give for `CCC1=C(C)CN(C(=O)NCCc2ccc(S(=O)(=O)NC(=O)N[C@H]3CC[C@H](C)CC3)cc2)C1=O` here?
A: The Activity was “Active”.

Q: And the Activity (Mus musculus [8])?
A: The Activity was “Active”.

Q: Which EC50 ([2]; read-out: EC50) does the source give for `O=C1NC(=O)C(Cc2ccc(OCCOC(c3ccccc3)c3ccc(C(F)(F)F)cc3)cc2)S1` (stereo not drawn) here?
A: The EC50 was 11.3 µM.

Q: What about the fold change (FC) [3] of the same molecule?
A: Its fold change (FC) is over 0.01.

Q: And the Activity [4]?
A: The Activity was “inactive”.

Q: How did the EC50 [2] turn out when `O=C1NC(=O)C(Cc2ccc(OCCn3c(-c4ccccc4)cc4ccccc43)cc2)S1` (stereo not drawn) was run?
A: Its EC50 is “Not Active”.

Q: What about the Activity [4] of the same molecule?
A: Its Activity is 34.9%.

Q: For `O=C1NC(=O)C(Cc2ccc(OCCOc3cccc4ccccc34)cc2)S1` (stereo not drawn), which EC50 [2] is on record?
A: Its EC50 is “Not Active”.

Q: What about the Activity [4] of the same molecule?
A: The Activity was 13.3%.

Q: For `O=C1NC(=O)C(Cc2ccc(OCCOC(c3ccccc3)c3ccc(Cl)cc3)cc2)S1` (stereo not drawn), which EC50 [2] is on record?
A: The EC50 was “Not Active”.

Q: What about the Activity [4] of the same molecule?
A: The Activity was 10.7%.

Q: Which results are given for `Cc1ccccc1C(OCCOc1ccc(CC2SC(=O)NC2=O)cc1)c1ccccc1` (stereo not drawn)?
A: EC50 [2]: Not Active; Activity [4]: 4.4%

Q: How did the “fold change (FC)” value (Mus musculus [6]) turn out when `O=C1NC(=O)C(Cc2ccc(OCCn3ccc4ccc(Cl)cc43)cc2)S1` (stereo not drawn) was run?
A: Its value is 3.5.

Q: And the Activity (Mus musculus [1])?
A: The Activity was “Active”.

Q: What about the EC50 ([2]; read-out: EC50) of the same molecule?
A: Its EC50 is 5.06 µM.

Q: What about the EC50 [5] of the same molecule?
A: Its EC50 is 4.51 µM.

Q: What about the Activity [4] of the same molecule?
A: Its Activity is 83.7%.

Q: What about the “fold change (FC)” value (Mus musculus [9]) of the same molecule?
A: Its value is 6.

Q: And the Activity (Mus musculus [7])?
A: Its Activity is “Active”.

Q: What does the source list for `CN(CCOc1ccc(CC2SC(=O)NC2=O)cc1)c1ccccn1` (stereo not drawn)?
A: Activity (Mus musculus [10]): Active; fold change (FC) [3]: 43.1; Activity (Mus musculus [7]): Active

Q: `O=C1NC(=O)C(Cc2ccc(OCCn3ccc4ccccc43)cc2)S1` (stereo not drawn) was tested. Which Activity (Mus musculus [1]) did it give?
A: The Activity was “Active”.

Q: What about the EC50 ([2]; read-out: EC50) of the same molecule?
A: Its EC50 is 2.19 µM.

Q: What about the fold change (FC) [3] of the same molecule?
A: Its fold change (FC) is 56.1.

Q: And the EC50 [5]?
A: The EC50 was 3.94 µM.

Q: And the Activity [4]?
A: The Activity was 130%.
